How the values were obtained:
KM12 = assay: panel of 60 human tumor cell lines, growth inhibition (Colon Cancer); settings: KM12
ACHN = assay: panel of 60 human tumor cell lines, growth inhibition (Renal Cancer)
TK-10 = assay: as above; settings: TK-10
HS 578T = assay: panel of 60 human tumor cell lines, growth inhibition (Breast Cancer); settings: for Percent Growth: HS 57BT
T-47D = assay: as above; settings: T-47D
MDA-MB-468 = assay: as above; settings: MDA-MB-468
OVCAR-8 = assay: panel of 60 human tumor cell lines, growth inhibition (Ovarian Cancer); settings: OVCAR-8
NCI/ADR-RES = assay: as above
NCI-H23 = assay: panel of 60 human tumor cell lines, growth inhibition (Non-Small Cell Lung Cancer); settings: NCI-H23
NCI-H460 = assay: as above; settings: NCI-H460

C=C1C(=O)O[C@H]2[C@H]1CC/C(COC(=O)N1CCN(C)CC1)=C\CC[C@@]1(C)O[C@@H]21 [JVM 2-44]
Mean Optical Densities (KM12; Log10 Concentration −6.0): 2.184
Percent Growth (KM12; Log10 Concentration −6.0): 101%
Mean Optical Densities (KM12; Log10 Concentration −7.0): 2.151
Percent Growth (KM12; Log10 Concentration −7.0): 99%
Mean Optical Densities (KM12; Log10 Concentration −8.0): 2.117
Percent Growth (KM12; Log10 Concentration −8.0): 97%
GI50 (ACHN): 3.83 µM
TGI (ACHN): 1.59E−5
Mean Optical Densities (ACHN; Log10 Concentration −4.0): 0.112
Percent Growth (ACHN; Log10 Concentration −4.0): −77%
Mean Optical Densities (ACHN; Log10 Concentration −5.0): 0.773
Percent Growth (ACHN; Log10 Concentration −5.0): 19%
Mean Optical Densities (ACHN; Log10 Concentration −6.0): 1.883
Percent Growth (ACHN; Log10 Concentration −6.0): 93%
Mean Optical Densities (ACHN; Log10 Concentration −7.0): 1.961
Percent Growth (ACHN; Log10 Concentration −7.0): 9B
Mean Optical Densities (ACHN; Log10 Concentration −8.0): 2.010
Percent Growth (ACHN; Log10 Concentration −8.0): 101%
GI50 (TK-10): 3.91 µM
TGI (TK-10): 1.53E−5
Mean Optical Densities (TK-10; Log10 Concentration −4.0): 0.069
Percent Growth (TK-10; Log10 Concentration −4.0): −94%
Mean Optical Densities (TK-10; Log10 Concentration −5.0): 1.338
Percent Growth (TK-10; Log10 Concentration −5.0): 21%
Mean Optical Densities (TK-10; Log10 Concentration −6.0): 2.166
Percent Growth (TK-10; Log10 Concentration −6.0): 92%
Mean Optical Densities (TK-10; Log10 Concentration −7.0): 2.198
Percent Growth (TK-10; Log10 Concentration −7.0): 95%
Mean Optical Densities (TK-10; Log10 Concentration −8.0): 2.185
Percent Growth (TK-10; Log10 Concentration −8.0): 94%
GI50 (HS 578T): 16.7 µM
TGI (HS 578T): >1.00E−4
Percent Growth (HS 578T; Log10 Concentration −4.0): 5%
Percent Growth (HS 578T; Log10 Concentration −5.0): 63%
Percent Growth (HS 578T; Log10 Concentration −6.0): 90%
Percent Growth (HS 578T; Log10 Concentration −7.0): 86%
Percent Growth (HS 578T; Log10 Concentration −8.0): 90%
Mean Optical Densities (HS 578T; Log10 Concentration −4.0): 1.235
Mean Optical Densities (HS 578T; Log10 Concentration −5.0): 1.827
Mean Optical Densities (HS 578T; Log10 Concentration −6.0): 2.096
Mean Optical Densities (HS 578T; Log10 Concentration −7.0): 2.057
Mean Optical Densities (HS 578T; Log10 Concentration −8.0): 2.099
GI50 (T-47D): 4.52 µM
TGI (T-47D): 1.94E−5
Mean Optical Densities (T-47D; Log10 Concentration −4.0): 0.323
Percent Growth (T-47D; Log10 Concentration −4.0): −56%
Mean Optical Densities (T-47D; Log10 Concentration −5.0): 0.946
Percent Growth (T-47D; Log10 Concentration −5.0): 23%
Mean Optical Densities (T-47D; Log10 Concentration −6.0): 1.660
Percent Growth (T-47D; Log10 Concentration −6.0): 102%
Mean Optical Densities (T-47D; Log10 Concentration −7.0): 1.593
Percent Growth (T-47D; Log10 Concentration −7.0): 94%
Mean Optical Densities (T-47D; Log10 Concentration −8.0): 1.664
Percent Growth (T-47D; Log10 Concentration −8.0): 102%
GI50 (MDA-MB-468): 1.87 µM
TGI (MDA-MB-468): 8.56E−6
Mean Optical Densities (MDA-MB-468; Log10 Concentration −4.0): 0.228
Percent Growth (MDA-MB-468; Log10 Concentration −4.0): −71%
Mean Optical Densities (MDA-MB-468; Log10 Concentration −5.0): 0.737
Percent Growth (MDA-MB-468; Log10 Concentration −5.0): −5%
Mean Optical Densities (MDA-MB-468; Log10 Concentration −6.0): 1.156
Percent Growth (MDA-MB-468; Log10 Concentration −6.0): 66%
Mean Optical Densities (MDA-MB-468; Log10 Concentration −7.0): 1.377
Percent Growth (MDA-MB-468; Log10 Concentration −7.0): 104%
Mean Optical Densities (MDA-MB-468; Log10 Concentration −8.0): 1.328
Percent Growth (MDA-MB-468; Log10 Concentration −8.0): 95%
GI50 (OVCAR-8): 11.1 µM
TGI (OVCAR-8): 3.06E−5
Mean Optical Densities (OVCAR-8; Log10 Concentration −4.0): 0.184
Percent Growth (OVCAR-8; Log10 Concentration −4.0): −61%
Mean Optical Densities (OVCAR-8; Log10 Concentration −5.0): 1.385
Percent Growth (OVCAR-8; Log10 Concentration −5.0): 59%
Mean Optical Densities (OVCAR-8; Log10 Concentration −6.0): 1.997
Percent Growth (OVCAR-8; Log10 Concentration −6.0): 98%
Mean Optical Densities (OVCAR-8; Log10 Concentration −7.0): 2.055
Percent Growth (OVCAR-8; Log10 Concentration −7.0): 102%
Mean Optical Densities (OVCAR-8; Log10 Concentration −8.0): 2.052
Percent Growth (OVCAR-8; Log10 Concentration −8.0): 101%
GI50 (NCI/ADR-RES): 24.6 µM
TGI (NCI/ADR-RES): >1.00E−4
Mean Optical Densities (NCI/ADR-RES; Log10 Concentration −4.0): 0.606
Percent Growth (NCI/ADR-RES; Log10 Concentration −4.0): 1%
Mean Optical Densities (NCI/ADR-RES; Log10 Concentration −5.0): 1.819
Percent Growth (NCI/ADR-RES; Log10 Concentration −5.0): 82%
Mean Optical Densities (NCI/ADR-RES; Log10 Concentration −6.0): 2.094
Percent Growth (NCI/ADR-RES; Log10 Concentration −6.0): 100%
Mean Optical Densities (NCI/ADR-RES; Log10 Concentration −7.0): 2.049
Percent Growth (NCI/ADR-RES; Log10 Concentration −7.0): 97%
Mean Optical Densities (NCI/ADR-RES; Log10 Concentration −8.0): 2.060
Percent Growth (NCI/ADR-RES; Log10 Concentration −8.0): 98%
GI50 (NCI-H23): 11.8 µM
TGI (NCI-H23): 3.12E−5
Mean Optical Densities (NCI-H23; Log10 Concentration −4.0): 0.244
Percent Growth (NCI-H23; Log10 Concentration −4.0): −60%
Mean Optical Densities (NCI-H23; Log10 Concentration −5.0): 1.347
Percent Growth (NCI-H23; Log10 Concentration −5.0): 58%
Mean Optical Densities (NCI-H23; Log10 Concentration −6.0): 1.872
Percent Growth (NCI-H23; Log10 Concentration −6.0): 100%
Mean Optical Densities (NCI-H23; Log10 Concentration −7.0): 1.838
Percent Growth (NCI-H23; Log10 Concentration −7.0): 97%
Mean Optical Densities (NCI-H23; Log10 Concentration −8.0): 1.849
Percent Growth (NCI-H23; Log10 Concentration −8.0): 98%
GI50 (NCI-H460): 20.3 µM
TGI (NCI-H460): 5.67E−5
Mean Optical Densities (NCI-H460; Log10 Concentration −4.0): 0.202
Percent Growth (NCI-H460; Log10 Concentration −4.0): −28%
Mean Optical Densities (NCI-H460; Log10 Concentration −5.0): 2.401
Percent Growth (NCI-H460; Log10 Concentration −5.0): 84%
Mean Optical Densities (NCI-H460; Log10 Concentration −6.0): 2.741
Percent Growth (NCI-H460; Log10 Concentration −6.0): 98%
Mean Optical Densities (NCI-H460; Log10 Concentration −7.0): 2.825
Percent Growth (NCI-H460; Log10 Concentration −7.0): 101%
Mean Optical Densities (NCI-H460; Log10 Concentration −8.0): 2.830
Percent Growth (NCI-H460; Log10 Concentration −8.0): 101%

Reference: US9469650B2, “Melampomagnolide B derivatives” (BOARD OF TRUSTEES OF THE UNIVERSITY OF ARKANSAS, priority 2013, dated 2016)
